Experimental data as given in ChEMBL document CHEMBL1138025, “Nocathiacin I analogues: synthesis, in vitro and in vivo biological activity of novel semi-synthetic thiazolyl peptide antibiotics” (Bioorg Med Chem Lett, 2004).
≈ marks a conversion by molar mass, not a printed value.

Key:
[1] = tested on: Enterococcus faecalis; test: In vitro antibacterial activity against methicillin-sensitive Enterococcus faecalis A20688; assay type: functional
[2] = Equilibrium water solubility at pH 3.4; assay type: physicochemical
[3] = tested on: Streptococcus pneumoniae; test: In vitro antibacterial activity against penicillin-resistant Streptococcus pneumoniae A28272; assay type: functional
[4] = tested on: Staphylococcus aureus; test: In vitro antibacterial activity against methicillin-sensitive Staphylococcus aureus A15090; assay type: functional
[5] = tested on: Mus musculus; test: In vivo efficacy (PD50) against lethal Staphylococcus aureus systemic infection model in mice; assay type: functional; conditions: read-out: PD50
[6] = Equilibrium water solubility at pH 3.5; assay type: physicochemical
[7] = Equilibrium water solubility at pH 2.9; assay type: physicochemical
[8] = Equilibrium water solubility at pH 3.8; assay type: physicochemical
[9] = Equilibrium water solubility at pH 2.6; assay type: physicochemical
[10] = Equilibrium water solubility at pH 4.0; assay type: physicochemical
[11] = Equilibrium water solubility at pH 3.2; assay type: physicochemical
[12] = Equilibrium water solubility at pH 2.8; assay type: physicochemical

SMILES | MIC [1] [µg/mL] | solubility thermodynamic [2] [µg/mL] | MIC [3] [µg/mL] | MIC [4] [µg/mL] | ED50 [5] [mg/kg] | solubility thermodynamic [6] [µg/mL] | solubility thermodynamic [7] [µg/mL] | solubility thermodynamic [8] [µg/mL] | solubility thermodynamic [9] [µg/mL] | solubility thermodynamic [10] [µg/mL] | solubility thermodynamic [11] [µg/mL] | solubility thermodynamic [12] [µg/mL]
CO/C(C)=C1/NC(=O)[C@H]([C@@H](C)O)NC(=O)c2csc(n2)-c2cc(O)c(-c3nc(C(=O)NC(CN(C)CCO)C(N)=O)cs3)nc2-c2csc(n2)[C@@H]2COC(=O)c3c4c5c(cccc5n3O)COC(=O)[C@@H](O[C@H]3C[C@](C)(O)[C@H](N(C)C)[C@H](C)O3)[C@@H](OC4)[C@H](NC(=O)c3csc1n3)c1nc(cs1)C(=O)N2 (some centres undefined) | 0.06 (≈ 0.0397 µM) | > 10000 | 0.01 (≈ 0.00661 µM) | 0.01 (≈ 0.00661 µM) | 0.8 |  |  |  |  |  |  | 
COCCOCCOCCOCCN1CCN(CC(NC(=O)c2csc(-c3nc4c(cc3O)-c3nc(cs3)C(=O)N[C@@H]([C@@H](C)O)C(=O)N/C(=C(\C)OC)c3nc(cs3)C(=O)N[C@@H]3c5nc(cs5)C(=O)N[C@@H](COC(=O)c5c6c7c(cccc7n5O)COC(=O)[C@@H](O[C@H]5C[C@](C)(O)[C@H](N(C)C)[C@H](C)O5)[C@H]3OC6)c3nc-4cs3)n2)C(N)=O)CC1 (some centres undefined) | 4 (≈ 2.33 µM) |  | 0.25 (≈ 0.146 µM) | 0.5 (≈ 0.292 µM) | 1.5 | > 1500 |  |  |  |  |  | 
CO/C(C)=C1/NC(=O)[C@H]([C@@H](C)O)NC(=O)c2csc(n2)-c2cc(O)c(-c3nc(C(=O)NC(CN(C)CCN(C)C)C(N)=O)cs3)nc2-c2csc(n2)[C@@H]2COC(=O)c3c4c5c(cccc5n3O)COC(=O)[C@@H](O[C@H]3C[C@](C)(O)[C@H](N(C)C)[C@H](C)O3)[C@@H](OC4)[C@H](NC(=O)c3csc1n3)c1nc(cs1)C(=O)N2 (some centres undefined) | 0.5 (≈ 0.325 µM) |  | 0.007 (≈ 0.00455 µM) | 0.06 (≈ 0.039 µM) | 3.3 |  | > 10000 |  |  |  |  | 
CO/C(C)=C1/NC(=O)[C@H]([C@@H](C)O)NC(=O)c2csc(n2)-c2cc(O)c(-c3nc(C(=O)NC(CN4CCC(O)CC4)C(N)=O)cs3)nc2-c2csc(n2)[C@@H]2COC(=O)c3c4c5c(cccc5n3O)COC(=O)[C@@H](O[C@H]3C[C@](C)(O)[C@H](N(C)C)[C@H](C)O3)[C@@H](OC4)[C@H](NC(=O)c3csc1n3)c1nc(cs1)C(=O)N2 (some centres undefined) | 0.25 (≈ 0.162 µM) |  | 0.007 (≈ 0.00455 µM) | 0.06 (≈ 0.039 µM) | 2.1 |  |  | > 2700 |  |  |  | 
CNCCNCC(NC(=O)c1csc(-c2nc3c(cc2O)-c2nc(cs2)C(=O)N[C@@H]([C@@H](C)O)C(=O)N/C(=C(\C)OC)c2nc(cs2)C(=O)N[C@@H]2c4nc(cs4)C(=O)N[C@@H](COC(=O)c4c5c6c(cccc6n4O)COC(=O)[C@@H](O[C@H]4C[C@](C)(O)[C@H](N(C)C)[C@H](C)O4)[C@H]2OC5)c2nc-3cs2)n1)C(N)=O (some centres undefined) | 0.5 (≈ 0.331 µM) |  | 0.03 (≈ 0.0198 µM) | 0.25 (≈ 0.165 µM) |  |  |  |  | > 2500 |  |  | 
C=C(NC(=O)c1csc(-c2nc3c(cc2O)-c2nc(cs2)C(=O)N[C@@H]([C@@H](C)O)C(=O)N/C(=C(\C)OC)c2nc(cs2)C(=O)N[C@@H]2c4nc(cs4)C(=O)N[C@@H](COC(=O)c4c5c6c(cccc6n4O)COC(=O)C(O[C@H]4C[C@](C)(O)[C@H](N(C)C)[C@H](C)O4)[C@H]2OC5)c2nc-3cs2)n1)C(N)=O (some centres undefined) | 0.03 (≈ 0.0209 µM) |  | 0.001 (≈ 0.000696 µM) | 0.007 (≈ 0.00487 µM) | 0.8 |  |  |  |  | 340 (≈ 237 µM) |  | 
CO/C(C)=C1/NC(=O)[C@H]([C@@H](C)O)NC(=O)c2csc(n2)-c2cc(O)c(-c3nc(C(=O)NC(CN4CCCC4)C(N)=O)cs3)nc2-c2csc(n2)[C@@H]2COC(=O)c3c4c5c(cccc5n3O)COC(=O)[C@@H](O[C@H]3C[C@](C)(O)[C@H](N(C)C)[C@H](C)O3)[C@@H](OC4)[C@H](NC(=O)c3csc1n3)c1nc(cs1)C(=O)N2 (some centres undefined) | 0.5 (≈ 0.331 µM) |  | 0.01 (≈ 0.00663 µM) | 0.06 (≈ 0.0398 µM) | 2.5 |  | > 3000 |  |  |  |  | 
CNCC(NC(=O)c1csc(-c2nc3c(cc2O)-c2nc(cs2)C(=O)N[C@@H]([C@@H](C)O)C(=O)N/C(=C(\C)OC)c2nc(cs2)C(=O)N[C@@H]2c4nc(cs4)C(=O)N[C@@H](COC(=O)c4c5c6c(cccc6n4O)COC(=O)[C@@H](O[C@H]4C[C@](C)(O)[C@H](N(C)C)[C@H](C)O4)[C@H]2OC5)c2nc-3cs2)n1)C(N)=O (some centres undefined) | 8 (≈ 5.45 µM) |  | 0.001 (≈ 0.000681 µM) | 2 (≈ 1.36 µM) | 1.6 |  | > 3500 |  |  |  |  | 
CO/C(C)=C1/NC(=O)C([C@@H](C)O)NC(=O)c2csc(n2)-c2cc(O)c(-c3nc(C(=O)NC(CNCCCn4ccnc4)C(N)=O)cs3)nc2-c2csc(n2)[C@@H]2COC(=O)c3c4c5c(cccc5n3O)COC(=O)[C@@H](O[C@H]3C[C@](C)(O)[C@H](N(C)C)[C@H](C)O3)[C@@H](OC4)[C@H](NC(=O)c3csc1n3)c1nc(cs1)C(=O)N2 (some centres undefined) | 1 (≈ 0.64 µM) |  | 0.06 (≈ 0.0384 µM) | 0.5 (≈ 0.32 µM) | 10 |  |  |  |  |  | > 10000 | 
CO/C(C)=C1/NC(=O)[C@H]([C@@H](C)O)NC(=O)c2csc(n2)-c2cc(O)c(-c3nc(C(=O)NC(CNCCN4CCN(C)CC4)C(N)=O)cs3)nc2-c2csc(n2)[C@@H]2COC(=O)c3c4c5c(cccc5n3O)COC(=O)[C@@H](O[C@H]3C[C@](C)(O)[C@H](N(C)C)[C@H](C)O3)[C@@H](OC4)[C@H](NC(=O)c3csc1n3)c1nc(cs1)C(=O)N2 (some centres undefined) | 4 (≈ 2.53 µM) |  | 0.01 (≈ 0.00633 µM) | 0.25 (≈ 0.158 µM) | > 10 |  |  |  |  |  |  | > 2900
